In patent US6861441B1, “Use of EP4 receptor ligands in the treatment of neuropathic pain and colon cancer” (SmithKline Beecham Corporation, priority 1999, dated 2005):
pKi: −log10 of the molar value.

Key:
human EP4 receptors = target: T1, human EP4 receptors (Homo sapiens, UniProt P35408); assay: Human EP4 Scintillation Proximity Assay (SPA), [3H]-prostaglandin E2 competition binding
T1 construct: expressed in transfected cells; host or cells: Chinese Hamster Ovary (CHO) cells infected with Semliki Forest Virus carrying an SFV-1 RNA construct with the hEP4 receptor; membranes were prepared from these cells
T1 sequence (P35408 whole entry): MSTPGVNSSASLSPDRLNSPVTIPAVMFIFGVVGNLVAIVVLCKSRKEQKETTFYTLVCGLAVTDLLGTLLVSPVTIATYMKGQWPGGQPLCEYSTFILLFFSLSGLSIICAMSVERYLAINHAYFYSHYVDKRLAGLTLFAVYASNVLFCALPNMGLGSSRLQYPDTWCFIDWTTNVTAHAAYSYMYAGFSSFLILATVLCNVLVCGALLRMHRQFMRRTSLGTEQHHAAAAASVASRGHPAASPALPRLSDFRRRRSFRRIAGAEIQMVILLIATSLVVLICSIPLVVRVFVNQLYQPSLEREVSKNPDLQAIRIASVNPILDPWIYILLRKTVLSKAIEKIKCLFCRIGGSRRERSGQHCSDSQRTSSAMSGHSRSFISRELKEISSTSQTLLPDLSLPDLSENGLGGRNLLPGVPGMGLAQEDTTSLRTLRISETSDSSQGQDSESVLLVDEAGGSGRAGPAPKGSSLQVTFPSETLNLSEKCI
Protocol: Quantification of radioligand binding by scintillation proximity assay (SPA) is a long-established principle. Briefly, the affinity of compounds for a receptor is assessed by the specific competition between known quantities of radiolabelled ligand and compound for that receptor. Increasing concentrations of compound reduce the amount of radiolabel that binds to the receptor. This gives rise to a diminishing scintillation signal from SPA beads coated with membranes that bear the receptor. The signal may be detected with a suitable scintillation counter and the data generated may be analysed with suitable curve-fitting software.
The human EP4 SPA assay (hereafter referred to as ‘the assay’) utilises membranes prepared from Chinese Hamster Ovary (CHO cells) infected with Semliki Forest Virus (SFV). […]
For assay, membranes expressing human EP4 receptors are diluted in a pH-buffered medium and mixed with SPA beads coated with a suitable substance to facilitate the adhesion of membranes to the beads. […] Nonspecific binding (nsb) may be determined by competition between the radiolabelled ligand and a saturating concentration of unlabelled ligand. In order to quantify the affinity of EP4 receptor ligands, compounds are diluted in a stepwise manner across the wells of a 96-well plate. […] The affinity (pKi) of the compound may be calculated from the IC50 by application of the Cheng-Prusoff correction. […]

[1] = test system: CCI-induced neuropathic hypersensitivity in male random hooded rats; assay: Chronic constriction injury (CCI) model of neuropathic hypersensitivity, paw withdrawal threshold; assay type: in vivo, rat; conditions: 10 mgkg-1 b.i.d. PO
Text: Under isoflurane anaesthesia, the common left sciatic nerve was exposed at mid thigh level and four loose ligatures of Chromic gut tied around it. The wound was then closed and secured using suture clips. The surgical procedure was identical for the sham operated animals except the sciatic nerve was not ligated. The rats were allowed a period of seven days to recover from the surgery before behavioural testing began.

## CCOc1c2c(c(OCC)c3ccccc13)C(=O)N(c1ccc(CC(=O)O)cc1)C2 [IF, [4-(4,9-diethoxy-1-oxo-1,3-dihydro-2H-benzo[f]isoindol-2-yl)phenyl]acetic Acid]
Human EP4 receptors
  pKi: 7.00
[1]; days 20-33 postoperative
  time of chronic dosing until reversal became apparent: 3 days
  time of chronic dosing until reversal was maximal: 1 week
[1]; dosed chronically for 14 days (days 20-33 postoperative)
  effect on CCI-induced decrease in paw withdrawal threshold: reversal of the CCI-induced decrease in paw withdrawal threshold
[1]; after the 14-day dosing period
  paw withdrawal threshold following cessation of the drug treatment: returned to that of the vehicle treated CCI-operated animals
